The nature of data set [1]: Cytotoxicity in Huh7 cells, 5-day treatment (CellTiter Glo). The note with it: human, Huh-7 cells. (In general: Cellular ATP, detected with luciferase, serves as a proxy for viable cell number.)
Description: (§3) All cells were cultured at 37°C in a 5% CO2 incubator with 90% humidity unless noted otherwise. […] All cells were treated with the various compounds for 5 days, except for human erythroid and myeloid progenitors, which were treated for 14 days. After the incubation period, cell viability was measured by the addition of CellTiter Glo viability reagents (Promega, Madison, WI). The luminescence signal was quantified on an Envision luminescence plate reader (PerkinElmer, Waltham, MA) after incubation of the reagents and cells for 10 min at room temperature. […] CC50 values were calculated as the average of the results of three or four independent experiments.
Cell Culture and Cytotoxicity Studies
(§4) The Huh-7 cells were maintained in growth medium containing Dulbecco's Modified Eagle
(§5) Medium (DMEM, Cellgro) supplemented with 1% Nonessential Amino Acids (NEAA, Cellgro,
(§6) Manassas, VA), 10% fetal bovine serum (FBS, HyClone, Logan, UT) and 1% Penicillin-
(§7) streptomycin-glutamate (PSG, Invitrogen, Carlsbad, CA). The cells were passaged twice weekly
(§8) and maintained at 90% confluence densities.
(§9) The HepG2 cells were maintained in Eagle’s Minimum Essential Medium (EMEM) from ATCC
(§10) (Manassas, VA) supplemented with 10% FBS, 100 units/mL penicillin and 100 µg/mL
(§11) streptomycin (P/S) (Gibco). The cells were passaged twice weekly and maintained at 90%
(§12) The PC-3 cells were maintained in Kaighn’s F12 medium (Gibco, Carlsbad, CA) supplemented
(§13) with 10% FBS (HyClone, Logan, UT), 100 units/mL penicillin and 100 µg/mL streptomycin
(§14) (P/S) (Gibco). The cells were passaged twice weekly and maintained at 90% confluence. Cells
(§15) between passages 4 and 15 were used in the assays.
(§16) The fibroblast cell line MRC-5 cell line derived from normal lung tissue, was purchased from
(§17) ATCC (Manassas, VA) and cultured in Minimum Essential Medium (MEM) (Cellgro, Manassas,
(§18) VA) supplemented with 10% FBS (HyClone, Logan, UT) and 1% PSG (Invitrogen). The cells
(§19) were passaged twice weekly and maintained at 90% confluence densities.
A short description of data set [2]: Cytotoxicity in HepG2 (galactose) cells, 5-day treatment. The note with it: human, HepG2 cells (galactose).
Description: as §3
Cell Culture and Cytotoxicity Studies
as §4, §5, §6, §7, §8, §9, §10, §11, §12, §13, §14, §15, §16, §17, §18, §19
A short description of data set [3]: Cytotoxicity in stimulated PBMCs, 5 days. Particulars: human, stimulated PBMCs.
Data set [4] has as its system mitochondrial DNA-encoded cytochrome c oxidase (COX-1). Description: Mitochondrial protein synthesis assay (COX-1, MitoBiogenesis in-cell ELISA) in PC-3 cells. It is filed as cell-based, human. The note with it: PC-3 cells, 5-day treatments. The method, then:
(§1) PC-3 cells were treated with the compounds for 5 days and analyzed with the MitoTox MitoBiogenesis in-cell enzyme-linked immunosorbent assay (ELISA) kit (MitoSciences/Abcam, Eugene, Oregon) as described previously ([13]). The assay uses quantitative immunocytochemistry to measure the protein levels of nuclear DNA-encoded succinate dehydrogenase (SDH-A; complex II [succinate dehydrogenase]) and mitochondrial DNA-encoded cytochrome c oxidase (COX-1; complex IV [cytochrome c oxidase]) in cultured cells.
For orientation: ELISA stands for enzyme-linked immunosorbent assay.

Data set [5] has as its system mitochondrial DNA-encoded cytochrome c oxidase (COX-1; complex IV) protein level. The data set is described as above. Type of data set: cell-based, human. Particulars: human; PC-3 cells, COX-1, 5 days; read-out: Mean CC50 ± SD causing Mitochondrial toxicity: Protein synthesis. Here is the method: as §1
The nature of data set [6]: Cytotoxicity / ATP level in PC-3 cells, 5-day treatment. Particulars: human, PC-3 cells.
Description: as §3
Cell Culture and Cytotoxicity Studies
as §4, §5, §6, §7, §8, §9, §10, §11, §12, §13, §14, §15, §16, §17, §18, §19
Data set [7] is described as follows: Cytotoxicity in quiescent PBMCs, 5 days. Particulars: human, quiescent PBMCs.
Description: Human peripheral blood mononuclear cells (PBMCs) were isolated from human buffy coats obtained from healthy volunteers (Stanford Blood Bank, Palo Alto, CA) using standard Ficoll separation and stimulated as described elsewhere ([13]) and were tested at both quiescent and stimulated stages. Quiescent PBMCs were stimulated with 10 units per ml of recombinant human interleukin 2 (hIL-2) and 1 μg per ml phytohemagglutinin P (PHA-P) for 48 h prior to drug treatment.
as §3
Human peripheral blood mononuclear cells (PBMCs) were isolated from human buffy coats
obtained from normal healthy volunteers (Stanford Medical School Blood Center, Palo Alto,
CA). Total PBMCs were isolated from buffy coats using standard Ficoll separation and sterile
cellular isolation techniques performed in a bio-safety cabinet (1). Except where noted, the
procedure was carried out at room temperature. The final PBMCs pellet was resuspended in
Logan, UT), penicillin 100 units/mL and streptomycin 100 µg/mL (Gibco). For quiescent
PBMCs cultures, total cells were seeded in 96-well plates at a density of 1 x 10^6 cells per well, followed by immediate drug treatment. Stimulated PBMCs cultures were set up by seeding the freshly isolated PBMCs in T-175cm2 tissue culture flasks in 100 mL of RPMI containing the same components as the ones used for the quiescent PBMCs but with the addition of 10 units per mL of recombinant human interleukin-2 (hIL-2, Roche, Indianapolis, IN), and 1 µg per mL phytohemagglutinin-P (PHA-P, Sigma-Aldrich, St. Louis, MO) at density of 2  10^6 cells per mL for 48 hours at 37C in a 5% CO2 incubator with 90% humidity, prior to drug treatment.
Data set [8] in a line: Cytotoxicity in primary rat neonatal cardiomyocytes, 5 days. Type of data set: cell-based. The note with it: Sprague Dawley, primary rat neonatal cardiomyocytes, 5-day treatment, read-out: CC50 (mean ± standard deviation) in primary rat cardiomyocytes.
Data set [9] in a line: Bone marrow erythroid progenitor colony assay, 14 days. It is filed as cell-based, human. The note with it: human, human bone marrow erythroid progenitors, read-out: Mean CC50 ± SD in Bone marrow cells Erythroid.
Data set [10] is described as follows: Cytotoxicity in MT-4 T-cells, 5-day treatment. The note with it: human, MT-4 cells.
Description: (§20) Primary human hepatocytes were from Bioreclamation IVT (Westbury, NY) or Life Technologies (Carlsbad, CA).
as §3
Data set [11] is described as follows: Cytotoxicity in MRC5 fibroblasts, 5-day treatment. Particulars: human, MRC5 fibroblasts.
The nature of data set [12]: Bone marrow myeloid progenitor colony assay, 14 days. Type of data set: cell-based, human. The note with it: human, human bone marrow myeloid progenitors, read-out: Mean CC50 ± SD in Bone marrow cells Myeloid.
The nature of data set [13]: Cytotoxicity in primary human hepatocytes, 5 days. Particulars: human, primary human hepatocytes.
Description: as §20, §3
The test system of data set [14] is nuclear DNA-encoded succinate dehydrogenase (SDH-A; complex II) protein level. The data set can be described thus: Nuclear protein synthesis (SDH-A, MitoBiogenesis in-cell ELISA) in PC-3 cells. Particulars: human, read-out: Mean CC50 ± SD causing General cellular toxicity: Protein synthesis. Type of data set: cell-based, human. The method, then: as §1
Data set [15] has as its system mitochondrial spare respiratory capacity. The data set can be described thus: Oxygen consumption rate / spare respiratory capacity in PC-3 cells. The note with it: human, PC-3 cells, pH 7.4.
Description: (§21) Mitochondrial respiration was monitored by measuring the rate of oxygen consumption (OCR) of PC-3 cells after 3-day treatments with the compounds, using a Seahorse extracellular flux analyzer (XF^e-96) based on published protocols ([22][–][24]). The optimal cell seeding was determined by measuring the basal OCR of PC-3 cells that were seeded at different densities of 2.5 × 10^3, 5 × 10^3, 7.5 × 10^3, and 10 × 10^3 cells/well in XF 96-well plates (Seahorse Bioscience, North Billerica, MA) and incubated with 0.5% dimethyl sulfoxide (DMSO) for 3 days. […] Each reagent in the Mito Stress test kit (Seahorse Biosciences), i.e., ATP synthase inhibitor oligomycin, mitochondrial uncoupler carbonyl cyanide-4-(trifluoromethoxy)phenylhydrazone (FCCP), and a fixed-ratio mixture of the mitochondrial complex I (NADH dehydrogenase) inhibitor rotenone and the complex III (CoQH2-cytochrome c reductase) inhibitor antimycin A, was titrated. The lowest concentration that reached the maximal effect was chosen for each reagent. The OCR signals were normalized by cell numbers using DNA content determined by Hoechst's stain as described below.
(§22) PC-3 cells were seeded at a density of 5 × 10^3 cells/well in XF 96-well plates and incubated with the compounds for 3 days. On the day of the assay, the cell medium was replaced with XF assay medium (pH 7.4) containing 10 mM glucose and 1 mM freshly prepared pyruvate. Mitochondrial respiration was monitored by measuring OCR on a Seahorse extracellular flux analyzer (XF^e-96). All concentrations listed are the final concentration after mixing unless noted otherwise. […] Spare respiratory capacity was obtained by subtracting the rate of basal respiration from the rate of maximal respiration.
(§23) The cells were lysed by freezing at −80°C for >2 h. […] In parallel, another set of cells was treated with the compounds for 3 days and the ATP levels were measured using CellTiter Glo viability reagents (Promega, Madison, WI).
Data set [16] relates to mitochondrial spare respiratory capacity in PC-3 cells. Described as above. The note with it: PC-3 cells, 3-day treatments.
Description: as §21, §22, §23
Another data set deals with T1, RNA PolIII (Homo sapiens, UniProt O14802+Q9NW08).
T1 construct: complexes were isolated from rat NSN1 cells and HeLa cells, respectively; made in house; host or cells: HeLa cells expressing a FLAG-tagged Pol III subunit
The data set can be described thus: RNA PolIII inhibition assay. Type of data set: biochemical. The note with it: competing NTP 100 μM CTP and GTP, 500 μM ATP; read-out: Mean IC50 ± SD for RNA PolIII. The source says: (§2) Human DNA polymerase alpha, isolated from HeLa cell extracts, was from CHIMERx (Madison, WI). Recombinant human DNA polymerase beta, expressed in E. coli, was a gift from Zucai Suo at The Ohio State University. Recombinant human DNA polymerase gamma (including both the large subunit and the small subunit) was cloned, expressed, and purified from insect cells by Gilead Sciences (Foster City, CA) ([13]). RNA PolII was purchased as part of the HeLaScribe nuclear extract in vitro transcription system kit from Promega (Madison, WI). The recombinant human PolRMT and the transcription factors mitochondrial transcription factor A (mtTFA) and B2 (mtTFB2) were purchased from Enzymax (Lexington, KY). FLAG epitope-tagged RNA PolI and PolIII complexes were isolated from rat NSN1 cells and HeLa cells, respectively ([17], [18]). The inhibition of DNA polymerases alpha, beta, and gamma, PolRMT, and PolII and the rate of single-nucleotide incorporation by PolRMT have been described previously in detail ([12], [13], [19]). Inhibition of RNA PolI and PolIII was studied using published methods ([20], [21]). All concentrations were final unless noted otherwise. For the RNA PolI inhibition assay, a reaction mixture containing 50 mM HEPES (pH 7.9), 20% glycerol, 100 mM KCl, 1 mM dithiothreitol (DTT), 50 μg/ml calf thymus DNA, 4 mM MgCl2, 5 or 80 μM UTP (0.25 μl of [5,6-^3H]UTP, >25 Ci/mmol; PerkinElmer), 1 mM noncompeting NTP, competing NTP (5 μM for GTP, CTP, and UTP and 25 μM for ATP), and various concentrations (0 to 500 μM) of NTP analogs was preincubated at 30°C for 5 min. […] After incubation at 30°C for 20 min to 1 h, the reactions were terminated by pipetting the mixtures onto DEAE-cellulose discs (DE81; Whatman), and the products analyzed as described previously ([20], [21]).
The RNA PolIII inhibition assay was conducted in a similar manner, except that the concentrations of the competing NTP were modified to 100 μM for CTP and GTP and 500 μM for ATP to compensate for the low assay signal at lower NTP concentrations.

Another data set concerns the target T2, recombinant human PolRMT (Homo sapiens, UniProt O00411).
T2 construct: purchased Enzymax (Lexington, KY)
Description: Inhibition of PolRMT-catalyzed RNA synthesis. The note with it: read-out: Mean IC50 ± SD for PolRMT. Type of data set: biochemical.
Description: Activated fish sperm DNA was purchased from USB/Affymetrix (Santa Clara, CA) and used as a template for the DNA polymerases alpha, beta, and gamma. […] The RNA and DNA oligonucleotides used in the mitochondrial RNA polymerase assay (see Table S1 in the supplemental material) were synthesized and PAGE purified by Thermo Scientific/Dharmacon (Lafayette, CO). RNA primer R12 was 5′-^32P-phosphorylated with [γ-^32P]ATP (3,000 Ci/mmol) and T4 kinase (New England BioLabs, Ipswich, MA).
as §2, with “otherwise.” for “otherwise. For the RNA PolI inhibition assay, a reaction mixture containing 50 mM HEPES (pH 7.9), 20% glycerol, 100 mM KCl, 1 mM dithiothreitol (DTT), 50 μg/ml calf thymus DNA, 4 mM MgCl2, 5 or 80 μM UTP (0.25 μl of [5,6-^3H]UTP, >25 Ci/mmol; PerkinElmer), 1 mM noncompeting NTP, competing NTP (5 μM for GTP, CTP, and UTP and 25 μM for ATP), and various concentrations (0 to 500 μM) of NTP analogs was preincubated at 30°C for 5 min.”

The target of the next data set is T3, RNA PolII (Homo sapiens, UniProt P24928+P30876).
T3 construct: purchased as part of the HeLaScribe nuclear extract in vitro transcription system kit; purchased Promega (Madison, WI); host or cells: HeLa nuclear extract (endogenous enzyme)
The data set can be described thus: Inhibition of RNA PolII (HeLaScribe nuclear extract transcription). It is filed as biochemical. Particulars: nucleotide analogs (Table 6); read-out: Mean IC50 ± SD for RNA PolII.
Description: Activated fish sperm DNA was purchased from USB/Affymetrix (Santa Clara, CA) and used as a template for the DNA polymerases alpha, beta, and gamma. The DNA template used in the RNA Pol II assay was a 1,188-bp restriction fragment containing the cytomegalovirus (CMV) immediate early promoter (Promega, Madison, WI). The RNA and DNA oligonucleotides used in the mitochondrial RNA polymerase assay (see Table S1 in the supplemental material) were synthesized and PAGE purified by Thermo Scientific/Dharmacon (Lafayette, CO). RNA primer R12 was 5′-^32P-phosphorylated with [γ-^32P]ATP (3,000 Ci/mmol) and T4 kinase (New England BioLabs, Ipswich, MA).
as §2

A further data set has as its target T4, RNA PolI (Rattus norvegicus, UniProt O54889).
T4 construct: complexes were isolated from rat NSN1 cells and HeLa cells, respectively; made in house; host or cells: rat NSN1 cells expressing a FLAG-tagged Pol I subunit
The data set can be described thus: RNA PolI inhibition assay. Type of data set: biochemical. The note with it: NTP analogs 0 to 500 μM; read-out: Mean IC50 ± SD for RNA PolI.
Description: as §2

Data set [17] concerns RNA transcription products from PolI (preribosome), PolII (myc), and PolRMT (ATP6) in PC-3 cells. Description: RNA transcripts in PC-3 cells by RT-PCR. Type of data set: cell-based, human. The note with it: 5 μM, 1-day treatment. The method, then:
CX-5461, a known specific RNA PolI inhibitor, was used as the positive control ([25]). The growth medium was aspirated and replaced with 200 μl of 100 μM BMS-986094, 5 μM CX-5461, or DMSO control prepared in growth medium. At selected time points (0.5, 1, 4, 8, and 24 h), duplicate wells of the compounds and DMSO control were aspirated, the cells were washed 1× with PBS (pH 7.4), and 100 μl of RNA lysis buffer was added (Promega, Sunnyvale, CA). RNA was purified using the Wizard SV 96 total RNA isolation kit (Promega) and eluted in 100 μl of nuclease-free water. The TaqMan RNA-to-Ct 1-step kit (ABI/Life Technologies) was used for reverse transcription-quantitative PCR (RT-qPCR) amplification and quantification, using the 7900HT Fast real-time PCR system (ABI) under the following conditions: 15 min at 48°C for reverse transcription and 10 min at 95°C for activation, followed by 40 cycles of 15 s at 95°C for denaturation and 1 min at 60°C for annealing and extension. […] Transcripts were quantified relative to the standard curves, and the results expressed as the percentages of the average value of DMSO control wells.

Like-named read-outs stand apart in the source and are kept apart here.

T2 sequence (O00411 42-1230): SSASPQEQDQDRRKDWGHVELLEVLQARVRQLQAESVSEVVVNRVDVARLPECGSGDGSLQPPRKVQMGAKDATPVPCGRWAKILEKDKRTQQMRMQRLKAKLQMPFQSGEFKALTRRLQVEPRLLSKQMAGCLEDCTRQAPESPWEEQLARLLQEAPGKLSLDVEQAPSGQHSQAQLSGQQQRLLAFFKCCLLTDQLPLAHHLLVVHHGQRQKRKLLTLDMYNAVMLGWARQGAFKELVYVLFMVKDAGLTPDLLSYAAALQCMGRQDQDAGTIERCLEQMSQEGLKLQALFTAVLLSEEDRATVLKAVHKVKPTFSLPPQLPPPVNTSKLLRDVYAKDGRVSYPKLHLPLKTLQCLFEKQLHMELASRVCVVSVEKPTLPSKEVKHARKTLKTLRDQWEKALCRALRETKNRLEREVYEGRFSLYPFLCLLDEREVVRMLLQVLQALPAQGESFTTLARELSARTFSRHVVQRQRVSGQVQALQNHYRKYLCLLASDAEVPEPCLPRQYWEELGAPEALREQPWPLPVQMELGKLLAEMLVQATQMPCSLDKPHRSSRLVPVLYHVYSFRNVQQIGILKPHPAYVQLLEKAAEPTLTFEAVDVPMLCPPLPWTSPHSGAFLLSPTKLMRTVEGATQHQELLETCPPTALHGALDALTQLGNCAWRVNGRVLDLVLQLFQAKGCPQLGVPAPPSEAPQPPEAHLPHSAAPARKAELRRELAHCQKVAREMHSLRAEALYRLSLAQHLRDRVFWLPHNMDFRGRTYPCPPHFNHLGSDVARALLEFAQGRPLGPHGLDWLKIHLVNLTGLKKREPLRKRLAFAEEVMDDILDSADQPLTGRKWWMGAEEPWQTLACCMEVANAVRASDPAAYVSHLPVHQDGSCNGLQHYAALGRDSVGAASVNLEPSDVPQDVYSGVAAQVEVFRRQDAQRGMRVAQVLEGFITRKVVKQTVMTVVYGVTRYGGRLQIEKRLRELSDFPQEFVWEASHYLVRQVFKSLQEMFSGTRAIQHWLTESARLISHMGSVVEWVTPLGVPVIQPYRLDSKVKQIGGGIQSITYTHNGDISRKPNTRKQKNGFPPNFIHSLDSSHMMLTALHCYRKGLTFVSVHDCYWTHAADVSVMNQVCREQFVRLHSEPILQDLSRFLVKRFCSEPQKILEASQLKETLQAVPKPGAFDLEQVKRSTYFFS
T4 sequence (O54889 whole entry): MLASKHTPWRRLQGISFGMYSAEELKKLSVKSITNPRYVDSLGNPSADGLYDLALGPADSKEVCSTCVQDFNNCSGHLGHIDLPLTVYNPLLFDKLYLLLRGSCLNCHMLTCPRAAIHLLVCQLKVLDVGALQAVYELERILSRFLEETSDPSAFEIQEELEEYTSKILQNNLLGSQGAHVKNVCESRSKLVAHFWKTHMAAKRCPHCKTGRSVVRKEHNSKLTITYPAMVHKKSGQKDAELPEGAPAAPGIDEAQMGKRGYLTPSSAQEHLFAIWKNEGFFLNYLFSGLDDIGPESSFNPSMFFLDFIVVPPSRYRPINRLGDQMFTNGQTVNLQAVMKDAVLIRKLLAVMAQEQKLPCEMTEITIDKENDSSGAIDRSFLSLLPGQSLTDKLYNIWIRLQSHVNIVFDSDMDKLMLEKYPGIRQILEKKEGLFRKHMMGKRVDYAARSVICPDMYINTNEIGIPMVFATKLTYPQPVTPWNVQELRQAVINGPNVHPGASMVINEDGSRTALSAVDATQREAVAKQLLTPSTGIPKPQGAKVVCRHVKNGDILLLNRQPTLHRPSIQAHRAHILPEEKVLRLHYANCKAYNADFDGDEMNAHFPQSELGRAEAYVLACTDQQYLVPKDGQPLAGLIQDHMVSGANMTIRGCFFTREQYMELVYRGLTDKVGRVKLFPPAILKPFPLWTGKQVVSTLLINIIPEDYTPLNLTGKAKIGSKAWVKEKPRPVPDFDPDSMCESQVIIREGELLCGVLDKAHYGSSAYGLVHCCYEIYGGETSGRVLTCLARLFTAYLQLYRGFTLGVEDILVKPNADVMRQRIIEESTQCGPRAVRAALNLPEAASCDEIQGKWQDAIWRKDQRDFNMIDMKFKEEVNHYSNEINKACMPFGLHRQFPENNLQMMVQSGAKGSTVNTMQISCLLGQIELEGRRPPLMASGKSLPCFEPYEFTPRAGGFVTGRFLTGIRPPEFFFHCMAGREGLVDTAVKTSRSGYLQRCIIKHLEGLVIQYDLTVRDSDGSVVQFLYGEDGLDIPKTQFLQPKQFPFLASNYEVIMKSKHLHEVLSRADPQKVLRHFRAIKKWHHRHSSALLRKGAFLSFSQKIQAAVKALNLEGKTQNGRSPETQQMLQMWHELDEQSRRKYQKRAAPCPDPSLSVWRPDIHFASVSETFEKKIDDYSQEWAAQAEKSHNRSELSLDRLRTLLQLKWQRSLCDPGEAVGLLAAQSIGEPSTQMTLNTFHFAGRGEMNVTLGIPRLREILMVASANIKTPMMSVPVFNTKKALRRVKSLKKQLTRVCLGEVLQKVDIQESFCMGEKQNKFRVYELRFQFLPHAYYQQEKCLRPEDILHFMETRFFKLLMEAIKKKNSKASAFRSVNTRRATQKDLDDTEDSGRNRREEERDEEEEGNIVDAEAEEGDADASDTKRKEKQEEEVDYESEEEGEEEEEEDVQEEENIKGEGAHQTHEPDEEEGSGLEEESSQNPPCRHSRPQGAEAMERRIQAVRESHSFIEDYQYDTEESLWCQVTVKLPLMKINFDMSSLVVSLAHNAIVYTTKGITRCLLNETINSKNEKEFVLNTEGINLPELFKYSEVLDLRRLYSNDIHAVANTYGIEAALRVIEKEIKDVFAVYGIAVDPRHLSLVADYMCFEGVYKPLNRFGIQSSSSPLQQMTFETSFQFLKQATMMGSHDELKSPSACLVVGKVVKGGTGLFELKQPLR

In the case of `COc1ccc(C[C@H](N)C(=O)N[C@H]2[C@@H](O)[C@H](n3cnc4c(N(C)C)ncnc43)O[C@@H]2CO)cc1` [Puromycin], the CC50 (in general, the concentration that lowers cell viability or growth by half) at 5 days in data set [1] came to 520 ± 190 nM; in [2], 650 ± 180 nM; in data set [3] it was 1000 ± 200 nM; in [5], 120 ± 10 nM; in [6], 220 ± 70 nM; in data set [7], 4500 ± 1900 nM. Besides, the CC50 at 5 days in [8] was 330 ± 50 nM; in [10], 160 ± 60 nM; in data set [11] it was 240 ± 50 nM; in [13] it was 1900 ± 800 nM; in data set [14] it was 150 ± 10 nM. Further, the “selectivity of effect on COX-1 versus SDH-A and ATP levels” value in data set [4] is “nonselective inhibitive effects on the COX-1, SDH-A, and ATP levels”. In addition, the CC50 at 14 days in [9] is 360 ± 60 nM; in [12], 270 ± 40 nM. Moreover, the CC50 at 3 days in data set [15] came out at 490 ± 110 nM. Besides, the “selectivity of effect on spare respiratory capacity versus DNA and ATP levels” value in data set [16] was “nonselective inhibition of the spare respiratory capacity, DNA, and ATP levels”.

Turning to `C[C@@]1(O)[C@H](O)[C@@H](COP(=O)(O)OP(=O)(O)OP(=O)(O)O)O[C@H]1n1ccc(=O)[nH]c1=O` [2′CMeUTP], the IC50 (in general, the concentration that gives 50% inhibition) at RNA PolIII is more than 500000 nM; on recombinant human PolRMT (nucleotide analogs (Table 6)) it was 240000 ± 30000 nM; at RNA PolII, more than 500000 nM; at RNA PolI, 690000 ± 230000 nM.

Turning to `Nc1nc2c(ncn2[C@@H]2O[C@H](COP(=O)(O)OP(=O)(O)OP(=O)(O)O)C[C@H]2O)c(=O)[nH]1` [3′deoxyGTP], the IC50 is 104000 ± 20000 nM on RNA PolIII; 4200 ± 1400 nM at recombinant human PolRMT (nucleotide analogs (Table 6)); 4200 ± 1400 nM at recombinant human PolRMT (triphosphate form of the compound tested (Table 4)); more than 500000 nM on RNA PolII; 25000 ± 2000 nM on RNA PolI.

On to `Cc1cnc(CNC(=O)c2c(=O)c3ccc(N4CCCN(C)CC4)nc3n3c2sc2ccccc23)cn1` [CX-5461], for which, in data set [17], the “relative levels of RNA transcripts (pre-rRNA, myc, mitochondrial ATP6)” value is “selectively decreased pre-rRNA but had no effect on the levels of myc and mitochondrial ATP6 RNAs”.

The values above are taken from PMC4750701, “Role of Mitochondrial RNA Polymerase in the Toxicity of Nucleotide Inhibitors of Hepatitis C Virus” (Antimicrobial Agents and Chemotherapy, 2016).
